Experiments:
[1] = target: B-Raf kinase (SEQ. ID NO: 2) (Homo sapiens (Human), UniProt P15056); assay: Biochemical Assay for B-Raf (1); conditions: Table J, assay version (1); read-out: BRAF (1) IC50
Method in brief: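 Continuous PK/LDH-coupled NADH oxidation assay, A340 read for 6 h at 30° C., with 0.13 nM B-Raf, 30.1 nM MEK substrate and 1 mM ATP in Tris pH 7.5, MgCl2, DTT, detergents, 1% DMSO. Rate taken from 4–5 h window; percent inhibition vs no-compound and known-inhibitor controls; four-parameter fit gives IC50.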

[2] = system: Miapaca-2 cells; assay: MiaPaca-2 Cell Proliferation Assay (1); assay type: cell-based; conditions: Homo sapiens, MIA PaCa-2, single agent, read-out: MiaPaca2 (1) IC50
Method in brief: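 Resazurin was added after compound exposure and incubated 5-6 h, then fluorescence read at 540 nm excitation and 600 nm emission to give IC50.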

[3] = target: B-Raf (V600E) (SEQ. ID NO: 4) kinase (Homo sapiens (Human), UniProt P15056, V600E); assay: Biochemical Assay for B-Raf (V600E) (1); conditions: Table J, BRAF V600E, assay version (1); read-out: BRAF VE (1) IC50
Sequence of B-Raf (V600E) (SEQ. ID NO: 4) kinase (P15056 416-766 V600E): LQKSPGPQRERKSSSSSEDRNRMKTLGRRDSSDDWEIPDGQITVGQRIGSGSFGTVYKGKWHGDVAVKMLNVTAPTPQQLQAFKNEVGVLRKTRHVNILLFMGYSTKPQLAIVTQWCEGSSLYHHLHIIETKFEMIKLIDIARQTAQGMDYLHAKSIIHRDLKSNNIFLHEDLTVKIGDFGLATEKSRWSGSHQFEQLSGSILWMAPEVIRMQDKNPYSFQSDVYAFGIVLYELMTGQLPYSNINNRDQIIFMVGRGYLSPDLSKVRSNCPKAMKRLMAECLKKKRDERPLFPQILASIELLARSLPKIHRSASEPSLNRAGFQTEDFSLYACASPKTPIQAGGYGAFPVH
Method in brief: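 Coupled pyruvate kinase/lactate dehydrogenase assay: 0.03 nM B-Raf V600E, 30.1 nM MEK, 1 mM ATP, pH 7.5 Tris/MgCl2 buffer, 1% DMSO. NADH oxidation followed at 340 nm for 6 h at 30 °C; rate from 3–4 h converted to percent inhibition, IC50 by four-parameter fit.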

[4] = system: H2405 cells; assay: H2405 Cell Proliferation Assay (1); assay type: cell-based; conditions: Homo sapiens, NCI-H2405
Method in brief: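 Viability was read by resazurin reduction (ex 540 nm, em 600 nm; 5-6 h with 40 μL of 440 μM stock) after 67-72 h compound exposure at 37 °C.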

Sequence of B-Raf kinase (SEQ. ID NO: 2) (P15056 416-766): as the sequence (P15056 416-766 V600E) above, with E185V counted along it

Compound	IC50 [1]	IC50 [2]	IC50 [3]	IC50 [4]
CC(=O)Nc1cc(-c2cc(-c3cc(NC(=O)c4ccnc(C(F)(F)F)c4)ccc3C)cn(C)c2=O)ccn1 [Example 21, N-(3-(2′-acetamido-1-methyl-2-oxo-1,2-dihydro-[3,4′-bipyridin]-5-yl)-4-methylphenyl)-2-(trifluoromethyl)isonicotinamide]	≤ 100 nM	1000 to 10000 nM	≤ 100 nM	–
Cc1ccc(NC(=O)c2ccnc(C(C)(C)C#N)c2)cc1-c1nccc(-c2ccnc3c2CC(=O)N3)n1 [Example 22]	≤ 100 nM	1000 to 10000 nM	≤ 100 nM	–
CC(=O)Nc1cc(-c2nccc(-c3cc(NC(=O)c4ccnc(C(F)(F)F)c4)ccc3C)n2)ccn1 [Example 24]	≤ 100 nM	1000 to 10000 nM	≤ 100 nM	–
CNC(=O)c1cc(-c2nccc(-c3cc(NC(=O)c4ccnc(C(F)(F)F)c4)ccc3C)n2)ccn1 [Example 25]	≤ 100 nM	1000 to 10000 nM	≤ 100 nM	–
CC(=O)Nc1cc(-c2cc(-c3cc(C(=O)Nc4ccnc(C(F)(F)F)c4)ccc3C)ccn2)ccn1 [Example 26]	≤ 100 nM	1000 to 10000 nM	≤ 100 nM	–
CC(=O)Nc1cc(-c2cccc(-c3cc(NC(=O)c4ccnc(C(F)(F)F)c4)ccc3C)c2)ccn1 [Example 28]	≤ 100 nM	1000 to 10000 nM	≤ 100 nM	–
CNC(=O)c1cc(-c2cc(-c3cc(C(=O)Nc4ccnc(C(F)(F)F)c4)ccc3C)ccn2)ccn1 [Example 31]	100 to 500 nM	1000 to 10000 nM	≤ 100 nM	–
Cc1ncc(NC(=O)c2cn(C(C)C)nn2)cc1-c1nccc(-c2ccnc(NC(=O)C3CC3)c2)n1 [Example 285]	≤ 100 nM	–	≤ 100 nM	1000 to 10000 nM
Cc1ncc(NC(=O)c2cnnc(C3CC3)c2)cc1-c1nccc(-c2ccnc(NC(=O)C3CC3)c2)n1 [Example 294]	≤ 100 nM	–	≤ 100 nM	100 to 500 nM
COC(=O)Nc1cc(-c2cc(-c3cc(NC(=O)c4ccnc(C(C)(C)F)c4)c(F)cc3C)ccn2)ccn1 [Example 302]	≤ 100 nM	–	≤ 100 nM	100 to 500 nM
COC(=O)Nc1cc(-c2nccc(-c3cc(NC(=O)c4ccnc(C(C)(C)C#N)c4)c(F)cc3C)n2)ccn1 [Example 303]	≤ 100 nM	–	≤ 100 nM	≤ 100 nM
COC(=O)Nc1cc(-c2cnnc(-c3cc(NC(=O)c4cccc(C(C)(C)C#N)c4)ccc3C)c2)ccn1 [Example 311]	≤ 100 nM	–	≤ 100 nM	100 to 500 nM
COC(=O)Nc1cc(-c2cc(-c3cc(NC(=O)c4ccnc(C(F)F)c4)cnc3C)ccn2)ccn1 [Example 313]	≤ 100 nM	–	1000 to 10000 nM	100 to 500 nM
CNC(=O)c1cc(-c2cnnc(-c3cc(NC(=O)c4ccnc(C(C)(C)C#N)c4)ccc3C)c2)ccn1 [Example 314]	100 to 500 nM	–	≤ 100 nM	500 to 1000 nM
Cc1ccc(NC(=O)c2ccnc(C(C)(C)F)c2)cc1-c1cc(-c2ccnc(NC(=O)C3CC3)c2)cnn1 [Example 315]	≤ 100 nM	–	≤ 100 nM	≤ 100 nM
CNC(=O)c1cc(-c2cnnc(-c3cc(NC(=O)c4ccnc(C(C)(C)C#N)c4)cnc3C)c2)ccn1 [Example 316]	500 to 1000 nM	–	100 to 500 nM	1000 to 10000 nM
CNC(=O)c1cc(-c2cnnc(-c3cc(NC(=O)c4ccnc(C5CC5)c4)cnc3C)c2)ccn1 [Example 317]	500 to 1000 nM	–	1000 to 10000 nM	1000 to 10000 nM
CNC(=O)c1cc(-c2cnnc(-c3cc(NC(=O)c4ccnc(C(F)(F)F)c4)cnc3C)c2)ccn1 [Example 318]	500 to 1000 nM	–	1000 to 10000 nM	1000 to 10000 nM
COC(C)(C)c1cc(C(=O)Nc2ccc(C)c(-c3cc(-c4ccnc(NC(=O)C5CC5)c4)cnn3)c2)ccn1 [Example 319]	≤ 100 nM	–	≤ 100 nM	≤ 100 nM

Compound	IC50 [1]	IC50 [2]	IC50 [3]	IC50 [4]
Cc1ccc(NC(=O)c2cn(C(C)C)nn2)cc1-c1cc(-c2ccnc(NC(=O)C3CC3)c2)cnn1 [Example 320]	≤ 100 nM	–	100 to 500 nM	1000 to 10000 nM
Cc1ccc(NC(=O)c2cnn(C(C)(C)C)c2)cc1-c1cc(-c2ccnc(NC(=O)C3CC3)c2)cnn1 [Example 321]	≤ 100 nM	–	≤ 100 nM	100 to 500 nM
CNC(=O)c1cc(-c2cnnc(-c3cc(NC(=O)c4ccc(Cl)c(OC)c4)cnc3C)c2)ccn1 [Example 322]	1000 to 10000 nM	–	1000 to 10000 nM	1000 to 10000 nM
COC(=O)Nc1cc(-c2cc(-c3cc(NC(=O)c4ccnc(C(C)(C)F)c4)cnc3C)ccn2)ccn1 [Example 323]	≤ 100 nM	–	≤ 100 nM	100 to 500 nM
CNC(=O)c1cc(-c2cnnc(-c3cc(NC(=O)c4ccnc(C(C)(C)F)c4)ccc3C)c2)ccn1 [Example 325]	100 to 500 nM	–	≤ 100 nM	100 to 500 nM
CNC(=O)c1cc(-c2cnnc(-c3cc(NC(=O)c4ccnc(C5CC5)c4)ccc3C)c2)ccn1 [Example 326]	100 to 500 nM	–	100 to 500 nM	1000 to 10000 nM
CNC(=O)c1cc(-c2cnnc(-c3cc(NC(=O)c4ccnc(C(F)F)c4)ccc3C)c2)ccn1 [Example 327]	100 to 500 nM	–	500 to 1000 nM	1000 to 10000 nM
CNC(=O)c1cc(-c2cnnc(-c3cc(NC(=O)c4ccnc(C(C)(C)OC)c4)ccc3C)c2)ccn1 [Example 328]	500 to 1000 nM	–	≤ 100 nM	100 to 500 nM
CNC(=O)c1cc(-c2cnnc(-c3cc(NC(=O)c4ccc(F)c(C(F)(F)F)c4)ccc3C)c2)ccn1 [Example 329]	500 to 1000 nM	–	≤ 100 nM	500 to 1000 nM
CNC(=O)c1cc(-c2cnnc(-c3cc(NC(=O)c4ccnc(C(F)F)c4)cnc3C)c2)ccn1 [Example 330]	500 to 1000 nM	–	1000 to 10000 nM	1000 to 10000 nM
Cc1ccc(NC(=O)c2ccnc(C3CC3)c2)cc1-c1cc(-c2ccnc(NC(=O)C3CC3)c2)cnn1 [Example 331]	≤ 100 nM	–	≤ 100 nM	100 to 500 nM
Cc1ccc(NC(=O)c2ccnc(S(C)(=O)=O)c2)cc1-c1cc(-c2ccnc(NC(=O)C3CC3)c2)cnn1 [Example 332]	≤ 100 nM	–	≤ 100 nM	1000 to 10000 nM
CNC(=O)c1cc(-c2cnnc(-c3cc(NC(=O)CCC(C)(C)C#N)cnc3C)c2)ccn1 [Example 333]	1000 to 10000 nM	–	1000 to 10000 nM	1000 to 10000 nM
CO[C@H]1CC[C@H](C(=O)Nc2ccc(C)c(-c3ccnc(-c4ccnc(NC(=O)C5CC5)c4)n3)c2)CC1 [Example 341]	100 to 500 nM	–	≤ 100 nM	–
Cc1ccc(NC(=O)C2CN(C)CCO2)cc1-c1cccc(-c2cc(NC(=O)C3CC3)ncn2)c1 (centres unmarked) [Example 346]	≤ 100 nM	–	≤ 100 nM	1000 to 10000 nM
CO[C@H]1CC[C@H](C(=O)Nc2cnc(C)c(-c3cccc(-c4cc(NC(=O)C5CC5)ncn4)c3)c2)CC1 [Example 347]	500 to 1000 nM	–	≤ 100 nM	1000 to 10000 nM
CNC(=O)c1cc(-c2cc(-c3cc(NC(=O)CCC(C)(C)C#N)ccc3C)ccn2)ccn1 [Example 357]	100 to 500 nM	–	500 to 1000 nM	1000 to 10000 nM
CNC(=O)c1cc(-c2cc(-c3cc(NC(=O)COCC4CC4)ccc3C)ccn2)ccn1 [Example 358]	≤ 100 nM	–	500 to 1000 nM	1000 to 10000 nM

Source: patent US12319655B2, “RAF kinase inhibitors and methods of use thereof” (Deciphera Pharmaceuticals, LLC, priority 2021, dated 2025)
